The assay concerns the target T1, human PF4 (Homo sapiens, UniProt P02776).
T1 construct: PF4 is a 70 amino acid, lysine-rich 7.8 kDa platelet-specific protein; made in house; host or cells: Escherichia coli BL21DE3 pLysS (pT7-7) and/or Drosophila S2 cells
T1 sequence (P02776 32-101): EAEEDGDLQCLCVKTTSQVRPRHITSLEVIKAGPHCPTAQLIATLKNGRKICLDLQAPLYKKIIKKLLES
The assay can be described thus: Inhibition of PF4 tetramer formation (BS3 cross-linking, SDS-PAGE). It counts as biochemical. As to conditions: for inhibition at 1 µM: 1 μM inhibitor; for inhibition at 1 µM / inhibition at 3 µM / inhibition at 5 µM / inhibition at 10 µM: read-out: % inhibition of PF4 tetramer formation at single concentration of inhibitor; for inhibition at 3 µM: 3 μM inhibitor (column A); for inhibition at 5 µM: 5 μM inhibitor; for inhibition at 10 µM: 10 μM inhibitor (column A); for IC50: read-out: IC50 of PF4 tetramer formation inhibition. Put shortly:
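Recombinant human wild-type PF4 (E. coli-expressed, heparin-purified), 10 μg/ml in PBS, incubated with compound 15 min at 37° C or 60 min at room temperature, then cross-linked with 0.2 mM BS3 for 30 min at room temperature. Reducing 12% SDS-PAGE; bands quantified as % tetramer, trimer, dimer, monomer versus compound-free control.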

In the case of `O=C(NC1CCOCC1)C1C(=O)c2ccc(S(=O)(=O)c3ccc4c(c3)C(=O)C(C(=O)NC3CCOCC3)C4=O)cc2C1=O` (stereo not shown) [Example 368, N-(oxan-4-yl)-5-({2-[(oxan-4-yl)carbamoyl]-1,3-dioxo-2,3-dihydro-1H-inden-5-yl}sulfonyl)-1,3-dioxo-2,3-dihydro-1H-indene-2-carboxamide], the inhibition at 1 µM amounted to 1% and the inhibition at 3 µM amounted to 45%.

Consider `CC(C)(C)OC(=O)N1CC[C@H](C(=O)C2C(=O)c3ccc(C(=O)c4ccc5c(c4)C(=O)C(C(=O)[C@H]4CCN(C(=O)OC(C)(C)C)C4)C5=O)cc3C2=O)C1` (stereo partly drawn) [Example 373, tert-butyl (3S)-3-(5-{2-[(3S)-1-[(tert-butoxy)carbonyl]pyrrolidine-3-carbonyl]-1,3-dioxo-2,3-dihydro-1H-indene-5-carbonyl}-1,3-dioxo-2,3-dihydro-1H-indene-2-carbonyl)pyrrolidine-1-carboxylate], for which the inhibition at 1 µM was found to be 5% and the inhibition at 3 µM came to 3%.

As for `CCCCc1ccc(NC(=O)C2C(=O)c3ccc(S(=O)(=O)c4ccc5c(c4)C(=O)C(C(=O)Nc4ccc(CCCC)cc4)C5=O)cc3C2=O)cc1` (stereo not shown) [Example 102], the inhibition at 5 µM stood at 78%, the inhibition at 10 µM is 100% and the IC50 is 2900 nM.

As to `CCOC(=O)CC(=O)C1C(=O)c2ccc(S(=O)(=O)c3ccc4c(c3)C(=O)C(C(=O)CC(=O)OCC)C4=O)cc2C1=O` (stereo not shown) [Example 403, ethyl 3-(5-{[2-(3-ethoxy-3-oxopropanoyl)-1,3-dioxo-2,3-dihydro-1H-inden-5-yl]sulfonyl}-1,3-dioxo-2,3-dihydro-1H-inden-2-yl)-3-oxopropanoate], the inhibition at 1 µM was found to be 22% and the inhibition at 3 µM worked out at 23%.

As for `O=C(Nc1ccc(I)cc1)C1C(=O)c2ccc(S(=O)(=O)c3ccc4c(c3)C(=O)C(C(=O)Nc3ccc(I)cc3)C4=O)cc2C1=O` (stereo not shown) [Example 95, N-(4-iodophenyl)-5-({2-[(4-iodophenyl)carbamoyl]-1,3-dioxo-2,3-dihydro-1H-inden-5-yl}sulfonyl)-1,3-dioxo-2,3-dihydro-1H-indene-2-carboxamide], the inhibition at 5 µM is 33% and the inhibition at 10 µM is 69%.

Regarding `NCC(=O)C1C(=O)c2ccc(C(=O)c3ccc4c(c3)C(=O)C(C(=O)CN)C4=O)cc2C1=O` (stereo not shown) [Example 327, 2-(2-aminoacetyl)-5-[2-(2-aminoacetyl)-1,3-dioxo-2,3-dihydro-1H-indene-5-carbonyl]-2,3-dihydro-1H-indene-1,3-dione], the inhibition at 1 µM was determined as 13% and the inhibition at 3 µM was 24%.

In the case of `COc1ccc(NC(=O)C2C(=O)c3ccc(S(=O)(=O)c4ccc5c(c4)C(=O)C(C(=O)Nc4ccc(OC)cc4OC)C5=O)cc3C2=O)c(OC)c1` (stereo not shown) [Example 94, N-(2,4-dimethoxyphenyl)-5-({2-[(2,4-dimethoxyphenyl)carbamoyl]-1,3-dioxo-2,3-dihydro-1H-inden-5-yl}sulfonyl)-1,3-dioxo-2,3-dihydro-1H-indene-2-carboxamide], the inhibition at 5 µM was found to be 33% and the inhibition at 10 µM amounted to 62%.

Consider `O=C(Nc1ccc(Cl)cc1)C1C(=O)c2ccc(S(=O)(=O)c3ccc4c(c3)C(=O)C(C(=O)Nc3ccc(Cl)cc3)C4=O)cc2C1=O` (stereo not shown) [Example 87, N-(4-chlorophenyl)-5-({2-[(4-chlorophenyl)carbamoyl]-1,3-dioxo-2,3-dihydro-1H-inden-5-yl}sulfonyl)-1,3-dioxo-2,3-dihydro-1H-indene-2-carboxamide], for which the half-maximal inhibitory concentration (IC50) turned out to be 2500 nM.

Regarding `COCCOCCNC(=O)C1C(=O)c2ccc(Oc3ccc4c(c3)C(=O)C(C(=O)NCCOCCOC)C4=O)cc2C1=O` (stereo not shown) [Example 291, 5-({2-[hydroxy({[2-(2-methoxyethoxy)ethyl]amino})methyl]-1,3-dioxo-2,3-dihydro-1H-inden-5-yl}oxy)-N-[2-(2-methoxyethoxy)ethyl]-1,3-dioxo-2,3-dihydro-1H-indene-2-carboxamide], the inhibition at 1 µM is 69%, the inhibition at 3 µM came to 100% and the half-maximal inhibitory concentration (IC50) turned out to be 1290 nM.

With `COC(=O)CCCC(=O)C1C(=O)c2ccc(C(=O)c3ccc4c(c3)C(=O)C(C(=O)CCCC(=O)OC)C4=O)cc2C1=O` (stereo not shown) [Example 225, methyl 5-{5-[2-(5-methoxy-5-oxopentanoyl)-1,3-dioxo-2,3-dihydro-1H-indene-5-carbonyl]-1,3-dioxo-2,3-dihydro-1H-inden-2-yl}-5-oxopentanoate], the inhibition at 5 µM was 87%, the inhibition at 10 µM is 90% and the half-maximal inhibitory concentration (IC50) is 3200 nM.

Turning to `O=C(c1ccc2c(c1)C(=O)C(C(=O)NC1CCC1)C2=O)c1ccc2c(c1)C(=O)C(C(=O)NC1CCC1)C2=O` (stereo not shown) [Example 68, 5,5′-carbonylbis(n-cyclobutyl-1,3-dioxo-2,3-dihydro-1h-indene-2-carboxamide)], the inhibition at 5 µM came out at 45%, the inhibition at 10 µM is 86% and the half-maximal inhibitory concentration (IC50) is 1540 nM.

With `CC(C)(C)OC(=O)N1CC=C[C@H]1C(=O)C1C(=O)c2ccc(C(=O)c3ccc4c(c3)C(=O)C(C(=O)[C@@H]3C=CCN3C(=O)OC(C)(C)C)C4=O)cc2C1=O` (stereo partly drawn) [Example 122, tert-butyl (2S)-2-(5-{2-[(2S)-1-[(tert-butoxy)carbonyl]-2,5-dihydro-1H-pyrrole-2-carbonyl]-1,3-dioxo-2,3-dihydro-1H-indene-5-carbonyl}-1,3-dioxo-2,3-dihydro-1H-indene-2-carbonyl)-2,5-dihydro-1H-pyrrole-1-carboxylate], the half-inhibitory concentration (IC50) is roughly 3000 nM.

For the compound `CCCC(=O)C1C(=O)c2ccc(C(=O)c3ccc4c(c3)C(=O)C(C(=O)CCC)C4=O)cc2C1=O` (stereo not shown) [Example 150, 2-butanoyl-5-(2-butanoyl-1,3-dioxo-2,3-dihydro-1H-indene-5-carbonyl)-2,3-dihydro-1H-indene-1,3-dione], the inhibition at 5 µM amounted to 50%, the inhibition at 10 µM came out at 75% and the concentration for half-maximal inhibition (IC50) was roughly 22000 nM.

As for `COCCOCCNC(=O)C1C(=O)c2ccc(S(=O)(=O)c3ccc4c(c3)C(=O)C(C(=O)NCCOCCOC)C4=O)cc2C1=O` (stereo not shown) [Example 295, N-[2-(2-methoxyethoxy)ethyl]-5-[(2-{[2-(2-methoxyethoxy)ethyl]carbamoyl}-1,3-dioxo-2,3-dihydro-1H-inden-5-yl)sulfonyl]-1,3-dioxo-2,3-dihydro-1H-indene-2-carboxamide], the inhibition at 1 µM came to 29%, the inhibition at 3 µM was found to be 100% and the concentration for half-maximal inhibition (IC50) turned out to be 1100 nM.

In the case of `CSCC(=O)C1C(=O)c2ccc(C(=O)c3ccc4c(c3)C(=O)C(C(=O)CSC)C4=O)cc2C1=O` (stereo not shown) [Example 281, 2-[2-(methylsulfanyl)acetyl]-5-{2-[2-(methylsulfanyl)acetyl]-1,3-dioxo-2,3-dihydro-1H-indene-5-carbonyl}-2,3-dihydro-1H-indene-1,3-dione], the inhibition at 10 µM was 58% and the concentration for half-maximal inhibition (IC50) was 10000 nM.

Regarding `CC(=O)C1C(=O)c2cc(S(=O)(=O)c3cnc4c(c3)C(=O)C(C(C)=O)C4=O)cnc2C1=O` (stereo not shown) [Example 301, 6-acetyl-3-({6-acetyl-5,7-dioxo-5H,6H,7H-cyclopenta[b]pyridin-3-yl}sulfonyl)-5H,6H,7H-cyclopenta[b]pyridine-5,7-dione], the inhibition at 1 µM was determined as 23% and the inhibition at 3 µM was found to be 30%.

Turning to `CC(C)(C)OC(=O)NCCC(=O)C1C(=O)c2ccc(Oc3ccc4c(c3)C(=O)C(C(=O)CCNC(=O)OC(C)(C)C)C4=O)cc2C1=O` (stereo not shown) [Example 267, tert-butyl N-[3-(5-{[2-(3-{[(tert-butoxy)carbonyl]amino}propanoyl)-1,3-dioxo-2,3-dihydro-1H-inden-5-yl]oxy}-1,3-dioxo-2,3-dihydro-1H-inden-2-yl)-3-oxopropyl]carbamate], the inhibition at 10 µM came out at 100%.

For `O=C(NC1CCCC1)C1C(=O)c2ccc(S(=O)(=O)c3ccc4c(c3)C(=O)C(C(=O)NC3CCCC3)C4=O)cc2C1=O` (stereo not shown) [Example 294, N-cyclopentyl-5-{[2-(cyclopentylcarbamoyl)-1,3-dioxo-2,3-dihydro-1H-inden-5-yl]sulfonyl}-1,3-dioxo-2,3-dihydro-1H-indene-2-carboxamide], the inhibition at 1 µM was 45%, the inhibition at 3 µM is 88% and the IC50 was 1970 nM.

With `O=C(c1ccc2c(c1)C(=O)C(C(=O)[C@@H]1CCN1)C2=O)c1ccc2c(c1)C(=O)C(C(=O)[C@@H]1CCN1)C2=O` (stereo partly drawn) [Example 116, 2-[(2S)-azetidine-2-carbonyl]-5-{2-[(2S)-azetidine-2-carbonyl]-1,3-dioxo-2,3-dihydro-1H-indene-5-carbonyl}-2,3-dihydro-1H-indene-1,3-dione], the inhibition at 5 µM amounted to 13% and the inhibition at 10 µM is 21%.

For `O=C1c2ccc(S(=O)(=O)c3ccc4c(c3)C(=O)C(C(=O)C3CCOC3)C4=O)cc2C(=O)C1C(=O)C1CCOC1` (stereo not shown) [Example 147, 5-{[1,3-dioxo-2-(oxolane-3-carbonyl)-2,3-dihydro-1H-inden-5-yl]sulfonyl}-2-(oxolane-3-carbonyl)-2,3-dihydro-1H-indene-1,3-dione], the inhibition at 5 µM came to 55% and the inhibition at 10 µM was 59%.

In the case of `O=C(NCc1ccccc1)C1C(=O)c2ccc(S(=O)(=O)c3ccc4c(c3)C(=O)C(C(=O)NCc3ccccc3)C4=O)cc2C1=O` (stereo not shown) [Example 93, N-benzyl-5-{[2-(benzylcarbamoyl)-1,3-dioxo-2,3-dihydro-1H-inden-5-yl]sulfonyl}-1,3-dioxo-2,3-dihydro-1H-indene-2-carboxamide], the inhibition at 5 µM is 70% and the inhibition at 10 µM was determined as 75%.

(Values after US20250281424A1 (New York Blood Center, Inc, priority 2020, published 2025).)
